For orientation: pIC50 means the IC50 on a negative log10 scale, so that one unit is a factor of ten. Low readings indicate a high IC50, high ones a low IC50.

Molecules are shown by their SMILES. pIC50: −log10 of the molar value. Structures can show the parent of a compound that is named as a salt.

This note sets out measurements from patent US20040254175A1, “Derivatives of phenoxy-n-'4-(isothiazolindin-1,1-dioxid-2yl)phenyl!-valerian-acid amide and other compounds as inhibitors of the coagulation factor xa in the treatment of thromboembolic diseases and tumors” (priority 2001, published 2004).

One assay has as its target TF/FVIIa (Homo sapiens, UniProt P08709). Description: Inhibition of TF/factor VIIa (TF/FVIIa-IC50).
The target in a further assay is FXa (Homo sapiens, UniProt P00742). Description: Inhibition of factor Xa (FXa-IC50).
Sequence of FXa (P00742 235-488 limits assumed): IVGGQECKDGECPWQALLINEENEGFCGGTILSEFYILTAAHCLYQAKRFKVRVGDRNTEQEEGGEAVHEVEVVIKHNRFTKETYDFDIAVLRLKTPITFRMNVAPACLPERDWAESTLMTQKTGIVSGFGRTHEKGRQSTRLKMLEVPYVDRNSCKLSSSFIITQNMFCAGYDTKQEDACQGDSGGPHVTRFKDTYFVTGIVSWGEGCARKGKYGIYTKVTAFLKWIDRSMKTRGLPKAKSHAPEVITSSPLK
Sequence of FXa (P00742 41-179 partner limits assumed): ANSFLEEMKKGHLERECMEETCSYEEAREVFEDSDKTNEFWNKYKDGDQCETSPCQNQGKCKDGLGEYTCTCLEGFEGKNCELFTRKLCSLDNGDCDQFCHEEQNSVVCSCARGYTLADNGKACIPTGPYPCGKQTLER

Sequence of TF/FVIIa (P08709 213-466 limits assumed): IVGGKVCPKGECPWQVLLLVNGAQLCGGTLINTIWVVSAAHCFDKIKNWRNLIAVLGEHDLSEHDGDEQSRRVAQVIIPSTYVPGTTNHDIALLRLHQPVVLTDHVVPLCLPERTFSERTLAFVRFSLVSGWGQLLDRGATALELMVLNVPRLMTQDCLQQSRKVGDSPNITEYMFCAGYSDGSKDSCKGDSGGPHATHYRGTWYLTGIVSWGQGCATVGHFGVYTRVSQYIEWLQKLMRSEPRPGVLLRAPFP
Sequence of TF/FVIIa (P08709 61-212 partner limits assumed): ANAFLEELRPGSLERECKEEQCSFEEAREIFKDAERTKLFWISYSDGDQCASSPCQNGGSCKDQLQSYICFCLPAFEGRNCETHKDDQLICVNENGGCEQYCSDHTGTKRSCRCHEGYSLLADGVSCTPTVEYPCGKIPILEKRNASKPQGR
Sequence of TF/FVIIa (P13726 33-295 partner): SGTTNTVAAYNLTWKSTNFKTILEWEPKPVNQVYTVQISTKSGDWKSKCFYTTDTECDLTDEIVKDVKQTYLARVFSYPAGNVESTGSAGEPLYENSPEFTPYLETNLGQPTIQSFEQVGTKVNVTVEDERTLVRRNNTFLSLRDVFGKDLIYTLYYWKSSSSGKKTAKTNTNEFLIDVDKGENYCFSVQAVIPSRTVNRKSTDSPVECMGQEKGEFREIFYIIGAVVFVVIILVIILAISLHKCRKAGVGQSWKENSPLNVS
Excerpt for FXa: The inhibition of factor Xa by the compounds according to the invention and the measurement of the anticoagulant and antithrombotic activity can be determined by conventional in-vitro or in-vivo methods.

Consider `CCCC(Oc1cccc(C(=N)N)c1)C(=O)Nc1ccc(N2CCCS2(=O)=O)cc1` (stereo not shown) [AA, 2-(3-amidinophenoxy)-N-[4-(1,1-dioxoisothiazolidin-2-yl)phenyl]valeramide, acetate], for which the figures for the pIC50 against TF/FVIIa and on FXa were 6.35 and 6.46, respectively.
In the same order, the values of `Cc1cc(NC(=O)C(Nc2cccc(CN)c2)c2ccccc2)ccc1N1CCCS1(=O)=O` (stereo not shown) [BB, 2-(3-aminomethylphenylamino)-N-[4-(1,1-dioxoisothiazolidin-2-yl)-3-methylphenyl]-2-phenylacetamide, hydrochloride] are 6.06 and 6.31.
